Measured values published in US20240158446A1, “CYCLIC COMPOUND HAVING SELECTIVE INHIBITORY ACTION ON KRAS OVER HRAS AND NRAS” (CHUGAI SEIYAKU KABUSHIKI KAISHA, priority 2021, published 2024).
Read-outs that look alike come from different tables or passages of the source. *1 amine or outer side, *2 acyl side, *3 side chain or, on linkers, in order; H or OH if unused. Where a SMILES comes first, the peptide text is derived from it. Bridges are numbered along the chain shown (N, C = ends). [ ]: non-standard residue; d: D form. The star is where a group is joined. hPhe(3-Cl-4-CF3) = N[C@@H](CCc1ccc(C(F)(F)F)c(Cl)c1)C(=O)O; X5 = C=CCN([C@@H](Cc1ccc(C(F)(F)F)cc1)C(=O)[*:2])[*:1]; NPrPhe(4-CF3) = CCCN[C@@H](Cc1ccc(C(F)(F)F)cc1)C(=O)O; X18 = Cc1ccc(C[C@@H](C(=O)[*:2])N(CC(C)C)[*:1])cc1; NMeGly(cPent) = CN[C@H](C(=O)O)C1CCCC1; Pro(4,4-F2) = O=C(O)[C@@H]1CC(F)(F)CN1; Hyp = O=C(O)[C@@H]1C[C@@H](O)CN1; Gly(cBu) = N[C@H](C(=O)O)C1CCC1; NMeD = CN[C@@H](CC(=O)O)C(=O)O; NMeL = CN[C@@H](CC(C)C)C(=O)O; NMeAbu = CC[C@H](NC)C(=O)O; Morpholide = C1CN(*)CCO1; NMeA = CN[C@@H](C)C(=O)O; Ac5c = NC1(C(=O)O)CCCC1; Aze = O=C(O)[C@@H]1CCN1; Ac4c = NC1(C(=O)O)CCC1; NEtG = CCNCC(=O)O; Sar = CNCC(=O)O

What was measured:
[1] = target: GDP-bound NRAS wild-type protein (Homo sapiens, UniProt P01111); assay: Binding to NRAS by surface plasmon resonance (SPR), Single Cycle Kinetics; conditions: for NRAS/KRAS (ratio of KD value with respect to GDP-bound NRAS wild-type protein to KD value with respect to KRAS): SPR KD ratio NRAS/KRAS, class symbols
[2] = target: GDP-bound KRAS wild-type protein (Homo sapiens, UniProt P01116); assay: Binding to KRAS by surface plasmon resonance (SPR), Single Cycle Kinetics; conditions: GDP-bound KRAS wild-type protein, read-out: KRAS KD
[3] = target: GDP-bound HRAS wild-type protein (Homo sapiens, UniProt P01112); assay: Binding to HRAS by surface plasmon resonance (SPR), Single Cycle Kinetics; conditions: for HRAS/KRAS (ratio of KD value with respect to GDP-bound HRAS wild-type protein to KD value with respect to KRAS): SPR KD ratio HRAS/KRAS, class symbols
[4] = SPR, GDP-bound NRAS wild-type protein vs GDP-bound KRAS wild-type protein
[5] = SPR Single Cycle Kinetics, 1:1 binding model
[6] = SPR, GDP-bound HRAS wild-type protein vs GDP-bound KRAS wild-type protein

GDP-bound NRAS wild-type protein, sequence (P01111 whole entry): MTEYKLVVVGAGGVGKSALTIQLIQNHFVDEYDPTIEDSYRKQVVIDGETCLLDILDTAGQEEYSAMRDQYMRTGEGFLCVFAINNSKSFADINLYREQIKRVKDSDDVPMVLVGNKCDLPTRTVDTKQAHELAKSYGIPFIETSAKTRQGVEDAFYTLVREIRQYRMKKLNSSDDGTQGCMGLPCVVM
GDP-bound HRAS wild-type protein, sequence (P01112 whole entry): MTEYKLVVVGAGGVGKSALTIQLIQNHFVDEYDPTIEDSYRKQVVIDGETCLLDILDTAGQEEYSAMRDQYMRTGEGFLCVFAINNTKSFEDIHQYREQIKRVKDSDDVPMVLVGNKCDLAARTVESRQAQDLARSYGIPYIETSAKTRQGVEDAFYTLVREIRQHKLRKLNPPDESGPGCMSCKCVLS
GDP-bound KRAS wild-type protein, sequence (P01116 whole entry): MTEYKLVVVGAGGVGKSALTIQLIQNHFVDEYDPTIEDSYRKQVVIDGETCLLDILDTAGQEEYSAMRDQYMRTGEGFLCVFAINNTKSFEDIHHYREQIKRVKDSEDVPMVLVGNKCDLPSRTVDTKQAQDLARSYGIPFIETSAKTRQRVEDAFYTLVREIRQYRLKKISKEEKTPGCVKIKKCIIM

Compound | Kd [2, 5] | Kd ([2]; SPR, Single Cycle Kinetics) | NRAS/KRAS (ratio of KD value for NRAS to KD value for KRAS) [1, 4] | HRAS/KRAS (ratio of KD value for HRAS to KD value for KRAS) [3, 6] | NRAS/KRAS (ratio of KD value with respect to GDP-bound NRAS wild-type protein to KD value with respect to KRAS) [1] | HRAS/KRAS (ratio of KD value with respect to GDP-bound HRAS wild-type protein to KD value with respect to KRAS) [3] | NRAS/KRAS (ratio of KD value with respect to NRAS to KD value with respect to KRAS) [1, 4] | HRAS/KRAS (ratio of KD value with respect to HRAS to KD value with respect to KRAS) [3, 6]
CCCN1C(=O)CN(C)C(=O)[C@@H]2CCN2C(=O)[C@H]([C@@H](C)CC)NC(=O)[C@H](CC(C)C)N(C)C(=O)C[C@@H](C(=O)N(C)C)NC(=O)[C@H](C2CCCC2)N(C)C(=O)C2(CCC2)NC(=O)[C@@H]2CCCN2C(=O)[C@H](CCc2ccc(C(F)(F)F)c(Cl)c2)NC(=O)CN(C)C(=O)[C@@H]1Cc1ccc(C(F)(F)F)cc1 [PP0374] ([NMeL]I[Aze][Sar][NPrPhe(4-CF3)][Sar][hPhe(3-Cl-4-CF3)]P[Ac4c][NMeGly(cPent)]D-NMe2; lactam N-11) | 1.8 nM |  | B (a compound having 3 or more and less than 10 is denoted as B) | B (a compound having 3 or more and less than 10 is denoted as B) |  |  |  | 
CCO[C@@H]1C[C@H]2C(=O)NC3(CC(C)(C)C3)C(=O)N(C)[C@@H](C(CC)CC)C(=O)N(C)[C@H](C(=O)N3CCCC3)CC(=O)N(C)[C@@H](CC)C(=O)N[C@@H]([C@@H](C)CC)C(=O)N(C)CC(=O)N(C)[C@H]3C/C=C\CCN(C3=O)[C@@H](Cc3ccc(C)cc3)C(=O)N(C)CC(=O)N[C@@H](CCc3ccc(C(F)(F)F)c(OC)c3)C(=O)N2C1 [PP2171] |  | 0.75 nM | A (a compound having 10 or more and less than 20 is denoted as A) | A (a compound having 10 or more and less than 20 is denoted as A) |  |  |  | 
CCO[C@@H]1C[C@H]2C(=O)NC3(CCCC3)C(=O)N(C)[C@@H](C3CCCC3)C(=O)N(C)[C@H](C(=O)N(C)C)CC(=O)N(C)[C@@H](CC(C)C)C(=O)N[C@@H]([C@@H](C)CC)C(=O)N(C)CC(=O)N(C)[C@H]3C/C=C\CCN(C3=O)[C@@H](Cc3ccc(C)cc3)C(=O)N(C)CC(=O)N[C@@H](CCc3ccc(C(F)(F)F)c(Cl)c3)C(=O)N2C1 [PP2195] |  | 0.096 nM | A (a compound having 10 or more and less than 20 is denoted as A) | A (a compound having 10 or more and less than 20 is denoted as A) |  |  |  | 
CCC[C@H]1C(=O)N[C@@H]([C@@H](C)CC)C(=O)N(C)CC(=O)N(C)[C@H]2C/C=C\CCN(C2=O)[C@@H](Cc2ccc(C(F)(F)F)cc2)C(=O)N(C)CC(=O)N[C@@H](CCc2ccc3c(C)cn(C)c3c2)C(=O)N2C[C@H](OCC)C[C@H]2C(=O)NC2(CC(C)(C)C2)C(=O)N(C)[C@@H](C(CC)CC)C(=O)N(C)[C@H](C(=O)N(C)C)CC(=O)N1C [PP2908] | 1.5 nM |  |  |  | AA (a compound having 20 or more is denoted as AA) | A (a compound having 10 or more and less than 20 is denoted as A) |  | 
CC[C@H](C)[C@@H]1NC(=O)[C@H](CC(C)C)N(C)C(=O)C[C@@H](C(=O)N2CCOCC2)N(C)C(=O)[C@H](C2CCCC2)N(C)C(=O)C2(CCCC2)NC(=O)[C@@H]2CCCN2C(=O)[C@H](CCc2ccc(C(F)(F)F)c(Cl)c2)NC(=O)CN(C)C(=O)[C@H](Cc2ccc(C)cc2)N(CC(C)C)C(=O)[C@@H]2CCN2C(=O)[C@H](C)N(C)C1=O [PP0056] ([NMeL]I[NMeA][Aze][X18][Sar][hPhe(3-Cl-4-CF3)]P[Ac5c][NMeGly(cPent)][NMeD]-Morpholide; lactam N-11) | 2.9 nM |  | C (A compound having a KD ratio of 0.1 or more and less than 3 is denoted as C) | B (a compound having 3 or more and less than 10 is denoted as B) |  |  |  | 

More lines, in order of falling Kd [2, 5], values ahead:

Kd [2, 5] | Kd ([2]; SPR, Single Cycle Kinetics) | Compound | NRAS/KRAS (ratio of KD value for NRAS to KD value for KRAS) [1, 4] | HRAS/KRAS (ratio of KD value for HRAS to KD value for KRAS) [3, 6] | NRAS/KRAS (ratio of KD value with respect to GDP-bound NRAS wild-type protein to KD value with respect to KRAS) [1] | HRAS/KRAS (ratio of KD value with respect to GDP-bound HRAS wild-type protein to KD value with respect to KRAS) [3] | NRAS/KRAS (ratio of KD value with respect to NRAS to KD value with respect to KRAS) [1, 4] | HRAS/KRAS (ratio of KD value with respect to HRAS to KD value with respect to KRAS) [3, 6]
1 nM |  | C#CC[C@H]1C(=O)N[C@@H]([C@@H](C)CC)C(=O)N(C)CC(=O)N(C)[C@H]2C/C=C\CCN(C2=O)[C@@H](Cc2ccc(C(F)(F)F)cc2)C(=O)N(C)CC(=O)N[C@@H](CCc2ccc(C(F)(F)F)c(OC)c2)C(=O)N2CC[C@H]2C(=O)NC2(CC(C)(C)C2)C(=O)N(C)[C@@H](C2CCCC2)C(=O)N(C)[C@H](C(=O)N(C)C)CC(=O)N1C [PP2909] |  |  | B (a compound having 3 or more and less than 10 is denoted as B) | B (a compound having 3 or more and less than 10 is denoted as B) |  | 
0.22 nM |  | CCCN1C(=O)[C@@H]2CCN2C(=O)[C@H](C)N(C)C(=O)[C@H](C2CCC2)NC(=O)[C@H](CC(C)C)N(C)C(=O)C[C@@H](C(=O)N2CCOCC2)N(C)C(=O)[C@H](C2CCCC2)N(C)C(=O)C2(CCCC2)NC(=O)[C@@H]2CCCN2C(=O)[C@H](CCc2ccc(C(F)(F)F)c(Cl)c2)NC(=O)CN(C)C(=O)[C@@H]1Cc1ccc(C(F)(F)F)cc1 [PP0271] ([NMeL][Gly(cBu)][NMeA][Aze][NPrPhe(4-CF3)][Sar][hPhe(3-Cl-4-CF3)]P[Ac5c][NMeGly(cPent)][NMeD]-Morpholide; lactam N-11) | C (A compound having a KD ratio of 0.1 or more and less than 3 is denoted as C) | B (a compound having 3 or more and less than 10 is denoted as B) |  |  |  | 
0.16 nM |  | C=CCN1C(=O)[C@@H]2CCN2C(=O)[C@H](C)N(C)C(=O)[C@H]([C@@H](C)CC)NC(=O)[C@H](CC(C)C)N(C)C(=O)C[C@@H](C(=O)N2CCOCC2)N(C)C(=O)[C@H](C2CCCC2)N(C)C(=O)C2(CCCC2)NC(=O)[C@@H]2CCCN2C(=O)[C@H](CCc2ccc(C(F)(F)F)c(Cl)c2)NC(=O)CN(C)C(=O)[C@@H]1Cc1ccc(C(F)(F)F)cc1 [PP0114] ([NMeL]I[NMeA][Aze][X5][Sar][hPhe(3-Cl-4-CF3)]P[Ac5c][NMeGly(cPent)][NMeD]-Morpholide; lactam N-11) | C (A compound having a KD ratio of 0.1 or more and less than 3 is denoted as C) | C (A compound having a KD ratio of 0.1 or more and less than 3 is denoted as C) |  |  |  | 
0.076 nM |  | CCCN1C(=O)CN(C)C(=O)CN(C)C(=O)[C@H]([C@@H](C)CC)NC(=O)[C@H](CC)N(C)C(=O)C[C@@H](C(=O)N2CCOCC2)N(C)C(=O)[C@H](C2CCCC2)N(C)C(=O)C2(CCCC2)NC(=O)[C@@H]2CC(F)(F)CN2C(=O)[C@H](CCc2ccc(C(F)(F)F)c(Cl)c2)NC(=O)CN(C)C(=O)[C@@H]1Cc1ccc(C(F)(F)F)cc1 [PP0202] ([NMeAbu]I[Sar][Sar][NPrPhe(4-CF3)][Sar][hPhe(3-Cl-4-CF3)][Pro(4,4-F2)][Ac5c][NMeGly(cPent)][NMeD]-Morpholide; lactam N-11) | B (a compound having 3 or more and less than 10 is denoted as B) | C (A compound having a KD ratio of 0.1 or more and less than 3 is denoted as C) |  |  |  | 
0.063 nM |  | CCCN1C(=O)CN(C)C(=O)CN(CC)C(=O)[C@H]([C@@H](C)CC)NC(=O)[C@H](CC(C)C)N(C)C(=O)C[C@@H](C(=O)N(C)C)N(C)C(=O)[C@H](C2CCCC2)N(C)C(=O)C2(CCC2)NC(=O)[C@@H]2C[C@@H](OCC)CN2C(=O)[C@H](CCc2ccc(C(F)(F)F)c(Cl)c2)NC(=O)CN(C)C(=O)[C@@H]1Cc1ccc(C(F)(F)F)cc1 [PP0428] ([NMeL]I[NEtG][Sar][NPrPhe(4-CF3)][Sar][hPhe(3-Cl-4-CF3)][Hyp](Et)[Ac4c][NMeGly(cPent)][NMeD]-NMe2; lactam N-11) |  |  |  |  | B (a compound having 3 or more and less than 10 is denoted as B) | C (A compound having a KD ratio of 0.1 or more and less than 3 is denoted as C)
